Measurements taken from patent publication US10722463B2, “Compositions and methods using same for delivering agents into a target organ protected by a blood barrier” (Zuli Holdings Ltd., priority 2005, dated 2020).

Test system: blood barrier of rabbit brain
Assay: Detection of liposomes in the brain and spinal cord by confocal microscopy after intravenous injection (Example 1)
Format: in vivo, New Zealand White male rabbits
Details: rabbits, 1.5 ml/kg intravenous, one and four hours following administration
Experimental: A particular liposome formulation was tested for crossing the blood barrier of rabbit brain.
The rabbits were perfused with 200-250 ml PBS prior to spinal cord excision (post the border of the medulla oblongata (between C1 to C2)) and brain removal as shown in FIG. 1 (frontal neocortex (frontal part), corpus callosum, hippocampus and mid brain)). The brains and spinal cords were harvested and fixed (3.7% formalin/PBS) for 10 minutes (37% formalin diluted with PBS 1:10, to a final concentration of 3.7%). The fixed brains and spinal cords were embedded in OCT compound, placed into plastic molds and frozen at −70° C. 8-10 μm tissue slices were cut using a cryotome at −20° C. and fixed on slides after which they were rinsed with PBS for 5 minutes. Finally, slides were mounted using mounting solution (80% glycerol/20% PBS) and sealed with nail polish. Slides were analyzed using confocal microscopy.

Compound	detection of fluorescent marker in spinal cord and brain tissue
O=S(=O)(O)c1cc(O)c2ccc3c(S(=O)(=O)O)cc(S(=O)(=O)O)c4ccc1c2c34 [1-Hydroxypyren-3,6,8-Trisulfonic acid]	can be detected
Rhodamin-DSPE	can be detected
